{
  "source": "patent US20250027072A1",
  "about": "“METHODS AND CO[…] TO ENGINEERED CANNABINOID RECEPTORS” (priority 2021, published 2025)",
  "key": {"[1]": {"biological_target": "T1, human cannabinoid receptor type II (CB2R) (Homo sapiens, UniProt P34972)", "T1 sequence (P34972 whole entry)": "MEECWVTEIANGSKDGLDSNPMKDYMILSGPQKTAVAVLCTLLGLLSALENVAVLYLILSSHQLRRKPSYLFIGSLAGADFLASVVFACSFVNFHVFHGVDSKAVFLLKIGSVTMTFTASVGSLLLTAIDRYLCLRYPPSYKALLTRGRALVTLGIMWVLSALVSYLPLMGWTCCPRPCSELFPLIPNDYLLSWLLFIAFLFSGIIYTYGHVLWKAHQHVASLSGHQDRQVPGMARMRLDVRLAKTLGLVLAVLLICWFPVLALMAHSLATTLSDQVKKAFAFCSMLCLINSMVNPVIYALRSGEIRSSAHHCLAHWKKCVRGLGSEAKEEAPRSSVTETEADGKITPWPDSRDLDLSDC", "test": "cell-based", "format": "cell-based", "conditions": "Ste2 signal sequence CB2R; read-out: EC50, dose response with CB2R", "description": "(§1) To efficiently transduce signals from the human machinery to the yeast pathway, the yeast 5 C-terminal residues of the G-alpha gene GPA1 were replaced with the sequence of the Gαi3 human G-alpha variant as previously described (Brown et al. 2000). ZsGreen1 was used to report on the activity of the pathway, integrating it into the genome in place of the pheromone-inducible Fig1 gene (FIG. 14A).\n(§2) Yeast colonies were picked and grown overnight to saturation in pH 5.8 SD-His media in a 2.2 mL deep well plate (Axygen) grown in a plate-shaking incubator (30° C., 1000 rpm, 3 mm orbital). In the morning cultures were diluted 1:10 or 1:25 in SD-His media buffered to pH 7.1 with 100 mM MOPSO (unless otherwise specified). Ligands were added to the culture and incubated with shaking for 8 hours. Cells were then washed three times with ice-cold Tris buffer (pH 7) and diluted 1:20 for cytometry. All cytometry was performed on a Sony SA3800 spectral analyzer. Each sample was tested for 10,000 events, and read at a rate of 1,000 events per second. All assays as reported here were filtered only for singlet populations."}, "[2]": {"biological_target": "T1, human cannabinoid receptor type II (CB2R)", "test": "cell-based", "format": "cell-based", "design": "other: syn-prepro CB2R; \"Syn=synthetic pre-pro\"; fused on or other part: synthetic yeast pre-pro secretion leader (syn-prepro) fused at the N-terminus", "conditions": "EC50, dose response with CB2R, syn-prepro CB2R", "description": "as §1, §2"}, "[3]": {"biological_target": "T1, human cannabinoid receptor type II (CB2R)", "test": "cell-based", "format": "cell-based", "design": "other: MF alpha leader CB2R; \"MF-α=mating factor alpha pre-pro\"; fused on or other part: yeast mating factor alpha (MFα) pre-pro leader fused at the N-terminus", "conditions": "EC50, dose response with CB2R, MF alpha leader CB2R", "description": "as §1, §2"}, "[4]": {"biological_target": "T1, human cannabinoid receptor type II (CB2R)", "test": "cell-based", "format": "cell-based", "design": "MFα (mating factor alpha) pre-pro leader (N); expressed in transfected cells; host or cells: Saccharomyces cerevisiae BY4741-derived biosensor strain (Gpa1-Gαi3 chimera, ZsGreen reporter); sterol-modified strain ST03 for the screens, pH 5.8", "conditions": "EC50, dose response with CB2R, WT CB2R (no leader)", "description": "as §1, §2"}, "[5]": {"biological_target": "T2, human Cannabinoid Receptor 1 (CB1R) (Homo sapiens, UniProt P21554)", "T2 construct": "syn-prepro (synthetic yeast pre-pro secretion leader) (N); expressed in transfected cells; host or cells: Saccharomyces cerevisiae BY4741-derived strain (ste2, sst2, far1 knocked out); Gpa1-Gαi3 chimera", "T2 sequence (P21554 90-472)": "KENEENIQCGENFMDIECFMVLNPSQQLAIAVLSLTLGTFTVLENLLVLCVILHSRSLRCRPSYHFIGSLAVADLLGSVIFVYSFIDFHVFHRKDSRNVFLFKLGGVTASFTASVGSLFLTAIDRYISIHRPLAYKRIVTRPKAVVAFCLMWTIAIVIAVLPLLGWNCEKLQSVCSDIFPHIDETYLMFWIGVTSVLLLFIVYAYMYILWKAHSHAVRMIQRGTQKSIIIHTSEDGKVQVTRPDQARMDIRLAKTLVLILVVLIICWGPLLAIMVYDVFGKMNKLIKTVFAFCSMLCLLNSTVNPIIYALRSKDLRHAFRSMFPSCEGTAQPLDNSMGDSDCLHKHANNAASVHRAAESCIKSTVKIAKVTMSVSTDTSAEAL", "format": "cell-based"}, "CB1R": {"biological_target": "T3, CB1R (Homo sapiens, UniProt P21554)", "T3 construct": "host or cells: mouse AtT-20 cells", "T3 sequence (P21554 whole entry)": "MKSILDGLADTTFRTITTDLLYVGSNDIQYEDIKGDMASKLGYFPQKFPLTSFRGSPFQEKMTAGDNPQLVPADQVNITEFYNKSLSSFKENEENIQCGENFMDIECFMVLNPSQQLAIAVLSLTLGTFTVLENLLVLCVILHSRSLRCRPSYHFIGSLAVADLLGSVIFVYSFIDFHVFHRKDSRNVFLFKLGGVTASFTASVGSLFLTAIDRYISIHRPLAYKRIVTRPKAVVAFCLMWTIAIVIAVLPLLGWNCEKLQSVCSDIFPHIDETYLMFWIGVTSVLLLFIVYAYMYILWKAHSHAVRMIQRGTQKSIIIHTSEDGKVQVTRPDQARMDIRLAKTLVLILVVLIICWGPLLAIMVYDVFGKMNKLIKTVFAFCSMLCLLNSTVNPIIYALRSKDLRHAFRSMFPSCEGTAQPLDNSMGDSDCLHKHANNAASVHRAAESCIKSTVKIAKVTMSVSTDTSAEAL", "conditions": "Banister et al., 2015; read-out: EC50 with CB1R in mouse AtT-20 neuroblastoma cells; cited from earlier work"}, "[6]": {"biological_target": "T1, human cannabinoid receptor type II (CB2R)", "test": "cell-based", "format": "cell-based", "design": "Normalized Activity at 1 μM, CB2R; other: PINACA compounds, 1 μM; Normalized Activity at 1 μm, CB2R; other: 5-fluoro PB-22 isomers, 1 μm; other: MFα-CB2R, ST03 sterol strain, pH 5.8; activity against CB2R; other: at 10 nM, dose response; preference at CB2R of ADB-BINACA over AB-PINACA; signaling at CB2R in synthetic cannabinoid screen; fused on or other part: yeast mating factor alpha (MFα) pre-pro leader fused at the N-terminus as a trafficking signal", "description": "as §1, §2"}},
  "note": "Where “and” joins values, the source holds several entries; their conditions need not be identical. Equal values may be shown once. Read-outs that look alike come from different tables or passages of the source.",
  "data": [
    {"compound": "CCCCC/C=C\\C/C=C\\C/C=C\\C/C=C\\CCCC(=O)OC(CO)CO", "note": "[2-AG, 2-arachidonoyl glycerol]", "values": [
      {"measurement": "EC50", "setting": "[1]", "result": 150, "unit": "nM"},
      {"measurement": "EC50", "setting": "[2]", "result": 1540, "unit": "nM"},
      {"measurement": "EC50", "setting": "[3]", "result": 160, "unit": "nM"},
      {"measurement": "EC50", "setting": "[4]", "result": 70, "unit": "nM"}
    ]},
    {"compound": "CCCCCn1nc(C(=O)N[C@H](C(N)=O)C(C)C)c2ccccc21", "note": "[AB-PINACA]", "values": [
      {"measurement": "relative fluorescence of the ACEA positive control at CB1R", "setting": "[5]; compounds at 10 nM, 100 μM ACEA control", "result": "strong signaling"},
      {"measurement": "signaling at CB1R in synthetic cannabinoid screen relative to 100 μM ACEA positive control", "setting": "[5]; compounds at 1 μM", "result": "maximal fluorescence"},
      {"measurement": "EC50 at CB1R, synthetic cannabinoid dose response", "setting": "[5]; syn-prepro-Δ89-CB1R, wild type ergosterol strain", "result": "low nanomolar range"},
      {"measurement": "EC50", "setting": "[5]; syn-prepro-Δ89-CB1R, wild type ergosterol strain, read-out: EC50 at CB1R, synthetic cannabinoid dose response", "result": "1.2 nM and 1.21 nM"},
      {"measurement": "EC50", "setting": "CB1R", "result": 1.2, "unit": "nM"},
      {"measurement": "EC50", "setting": "[6]; MFα-CB2R, ST03 sterol strain, pH 5.8, read-out: EC50 at CB2R, dose response", "result": 107, "unit": "nM"},
      {"measurement": "signaling at CB2R in synthetic cannabinoid screen", "setting": "[6]; compounds at 1 μM", "result": "high activity"}
    ]}
  ]
}
